Key:
Assay type in all cases: cell-based, Saccharomyces cerevisiae
[1] = system: prototrophic yeast strain (CEN.PK113-7D); assay: Propidium iodide fluorescence-based chronological lifespan (CLS) method in yeast, incl. high-throughput screening; conditions: for Yeast CLS increase / PI intensity: 100 μM tested; for Yeast CLS increase: Yes/No call; for PI intensity: chronological age point day 7 (72 h growth = day 1), lower PI = more survival
Experimental: Chronological lifespan (CLS) experiments were conducted in 96-well plates with 200 μL yeast culture. The prototrophic wild-type yeast strain (CEN.PK113-7D) and snf1Δ deletion strains were grown in the SD medium in 96-well plates at 30° C. Saccharomyces cerevisiae BY4743 strain was grown in the SD medium supplemented with histidine (40 mg/L), leucine (160 mg/L), and uracil (40 mg/L) in 96-well plates at 30° C. For assays testing the effect of rapamycin, cellular inoculum was transferred into 96-well plates containing serially double-diluted concentrations (0 to 10 nM) of rapamycin. […] Likewise, cellular inoculum was transferred into the 96-well plates containing serially double-diluted concentrations (0-8 mM) of D-fructose, D-mannitol, D-maltose, and D-sorbitol. Cells were incubated at 30° C., and the growth was measured at different time points. […] Cell survival was quantified at various age time points by three different approaches: (i) propidium iodide fluorescence-based method, (ii) outgrowth in YPD liquid medium and (iii) spotting assay (FIG. 1).
40 μL yeast cells on different age time points were transferred into a 96-well plate different to the 96-well plate in which the CLS analysis was performed. Cells were washed and incubated in 100 μL 1×PBS with PI (5 μg/mL) for 15 minutes in the dark. Positive and negative sample control were included for quantitative analysis. Positive control (cells boiled at 100° C. for 15 min) was PI-stained and processed in the same 96-well plate. Samples without PI-stained cells served as the negative control. After incubation, cells were washed and resuspended in 100 μL PBS. The fluorescence reading of the samples (excitation at 535 nm, emission at 617 nm) and OD600 nm were measured by a microplate reader (BioTek, Winooski, Vermont, United States). The fluorescence intensity of each sample was normalized with OD600 nm. The normalized fluorescence intensity of each sample was subtracted from the background signal of the unstained negative sample. The obtained fluorescence intensity of the positive control sample (boiled dead cells) was considered 0% cell survival. […] Cell survival of different age time point samples were calculated by normalizing the fluorescence intensity with positive control sample (boiled cells).
The prototrophic yeast strain (CEN.PK113-7D) was grown in the synthetic defined medium with indicated concentrations of rapamycin in 96-well plates at 30° C. A total of 30 samples of individual rapamycin concentration was tested with DMSO control (0 nM rapamycin) for Z-factor analysis. […] The chronological lifespan of the aged cells was determined by the outgrowth method in YPD liquid medium. […] At chronological age point day 4, 3 μL culture were transferred to a second 96-well plate containing 200 μL YPD medium. […] The CLS of different concentrations of rapamycin incubated cells was determined using the propidium iodide fluorescence-based method (FIG. 2C). […] Z-factor of different concentrations of rapamycin was analyzed using the formula Z=1−[3×(standard deviation of control sample+standard deviation of rapamycin sample)/(mean of control sample−mean of rapamycin sample)].
High-throughput screening of various chemicals was tested using the same protocol for the propidium iodide fluorescence-based method as described above. The prototrophic yeast strain (CEN.PK113-7D) was grown in the synthetic defined medium with different chemical reagents with a single testing concentration (Table 1) in addition to eight replicates of DMSO and water controls in 96-well plates at 30° C.

[2] = system: prototrophic yeast strain (CEN.PK113-7D); assay: Yeast outgrowth in YPD liquid medium (CLS of aged cells); conditions: 100 μM tested; outgrowth OD600 nm in YPD after 24 h, age point day 14
Experimental: This quantification was performed by using the formula,
The CLS of the aged cells was further determined by the yeast outgrowth in YPD liquid medium method as described above. […] At chronological age point day 14, 3-μL of culture were transferred to a second 96-well plate containing 200 μL YPD medium.

[3] = system: prototrophic yeast strain (CEN.PK113-7D); assay: Yeast cell growth (OD600 nm) with rapamycin in SD medium
Experimental: Chronological lifespan (CLS) experiments were conducted in 96-well plates with 200 μL yeast culture. The prototrophic wild-type yeast strain (CEN.PK113-7D) and snf1Δ deletion strains were grown in the SD medium in 96-well plates at 30° C. Saccharomyces cerevisiae BY4743 strain was grown in the SD medium supplemented with histidine (40 mg/L), leucine (160 mg/L), and uracil (40 mg/L) in 96-well plates at 30° C. For assays testing the effect of rapamycin, cellular inoculum was transferred into 96-well plates containing serially double-diluted concentrations (0 to 10 nM) of rapamycin. For calorie restriction assay, cellular inoculums were prepared in SD medium containing 2% w/v, 0.5% w/v, and 0.25% w/v glucose and transferred to 96-well plates. […] Cells were incubated at 30° C., and the growth was measured at different time points. […] Cell survival was quantified at various age time points by three different approaches: (i) propidium iodide fluorescence-based method, (ii) outgrowth in YPD liquid medium and (iii) spotting assay (FIG. 1).
The effect of rapamycin on the CLS of a yeast strain was studied to examine the validity of the inventive protocol. […] Cells were aged with different concentrations of rapamycin in the SD medium and their respective growth at different time points (24 hours, 48 hours and 72 hours) were measured. […]

## O=C(O)[C@@H]1CCCN1 [I-pyrrolidine-2-carboxylic acid]
[1]
  Yeast CLS increase: No
  PI intensity: 80,551.7
[2]
  Outgrowth: 0.1

## Aliskiren (hemiumarate)
[1]
  PI intensity: 73,607.3

## O=C(Oc1nc2[nH]c(=O)[nH]c(=O)c2[nH]1)c1cccnc1 [Xanthinol Nicotinate]
[1]
  Yeast CLS increase: No

## OC[C@H]1O[C@H](CO)[C@@H](O)[C@@H]1O [2,5-anhydromannitol, 2,5-anhydro-D-mannitol]
[1]; screen, PI method
  extension of CLS of yeasts: extend the CLS of yeasts

## CO[C@H]1C[C@@H]2CC[C@@H](C)[C@@](O)(O2)C(=O)C(=O)N2CCCC[C@H]2C(=O)O[C@H]([C@H](C)C[C@@H]2CC[C@@H](O)[C@H](OC)C2)CC(=O)[C@H](C)/C=C(\C)[C@@H](O)[C@@H](OC)C(=O)[C@H](C)C[C@H](C)/C=C/C=C/C=C/1C [Rapamycin]
[1]; 5 nM and 10 nM, day 4 (without rapamycin approx. 50%)
  survival of aged cells: approximately 75%
[1]; day 7 (without rapamycin less than 20%)
  survival of aged cells: approximately 70%
[3]; 5 nM or less rapamycin
  time to cell growth saturation: approximately 24 hours
[3]; 10 nM rapamycin (slowed cell growth)
  time to cell growth saturation: 48 h

From US20250164468A1, “Method for Cellular Lifespan Measurement” (AGENCY FOR SCIENCE, TECHNOLOGY AND RESEARCH, priority 2022, published 2025)
